From US5145850A, “Imidazopyridazines, their production and use” (Takeda Chemical Industries, Ltd., priority 1990, dated 1992)

test system: Platelet Activating Factor (PAF)-induced bronchoconstriction; experiment: Effect on Bronchoconstriction Induced by Platelet Activating Factor (PAF) in Guinea Pigs (Konzett-Rossler method); type: in vivo, Male Hartley guinea pigs; details: guinea pig; drug 10 mg/Kg orally 1 hour before PAF (1 μg/Kg, i.v.); recorded for 15 minutes
Experimental: Effect on Bronchoconstriction Induced by Platelet Activating Factor (PAF) in Guinea Pigs
Male Hartley guinea pigs (body weight 500 g) were used. The bronchoconstriction reaction in the guinea pig which has intravenously received PAF (1 μg/Kg) was measured by the Konzett-Rossler method. The trachea of the guinea pig with its back fixed was incised under anesthesia condition with urethane (intraperitoneal injection, 1.50 g/Kg) and connected with an artificial respirator via a cannula. The branch of the tracheal cannula was connected with a transducer (7020 type, Ugobasile). Air was sent to the trachea at the volume of 3-7 ml/stroke, at the stroke of 70 strokes/min. at load pressure of 10 cm H2 O to lung and overflowed air volume was recorded with Rectegraph (Recte-Hori-8s, Sanei Sokuki) via the transducer. After the guinea pig was treated with galamine (1 mg/Kg, i.v.), PAF (1 μg/Kg) dissolved in a physiological saline solution was administered to the guinea pig via a jugular venous cannula and the bronchoconstriction reaction induced thereby was recorded for 15 minutes. The drug (10 mg/Kg) suspended in a 5% gum arabic solution was administered orally 1 hour before the injection of PAF.

Row | Structure (SMILES) | Inhibition (%) of PAF-induced bronchoconstriction
1 | NS(=O)(=O)CC1(COc2ccc3nccn3n2)CCCCC1 [Example 1, 6-[(2,2-pentamethylene-3-sulfamoylpropyl)oxy]imidazo[1,2-b]pyridazine] | 72%
2 | NS(=O)(=O)CC1(COc2ccc3nccn3n2)CCCC1 [Example 2, 6-[(2,2-tetramethylene-3-sulfamoylpropyl)oxy]imidazo[1,2-b]pyridazine] | 78%
3 | NS(=O)(=O)CC1(COc2ccc3nccn3n2)CCC1 [Example 3, 6-[(2,2-trimethylene-3-sulfamoylpropyl)oxy]imidazo[1,2-b]pyridazine] | 58%
4 | NS(=O)(=O)CC1(COc2ccc3nccn3n2)CC1 [Example 4, 6-[(2,2-dimethylene-3-sulfamoylpropyl)oxy]imidazo[1,2-b]pyridazine] | 48%
5 | NS(=O)(=O)CC1(COc2ccc3nccn3n2)COC1 [Example 9, 6-[[2,2-(2-oxatrimethylene)-3sulfamoylpropyl]oxy]imidazo[1,2-b]pyridazine] | 51%
6 | NS(=O)(=O)CC1(CSc2ccc3nccn3n2)CCC1 [Example 13, 6-[(2,2-trimethylene-3-sulfamoylpropyl)thio]imidazo[1,2-b]pyridazine] | 40%
